Results: BindingDB's records for doi:10.1080/14756360701404100 (Balikesir University Science & Art Faculty, 2008)

How the values were obtained:
Conditions in all cases: pH 10
Carbonic anhydrase 2 [1] = target: T1, Carbonic anhydrase 2 (Homo sapiens, UniProt P00918); assay: Hydratase Activity Assay
Procedure: (§1) Carbonic anhydrase enzyme activity was assayed both with respect to its hydratase activity (i.e. hydration of CO2) and to its esterase activity (i.e. hydrolysis of an ester of p-nitrophenylacetate)

Carbonic anhydrase 1 [2] = target: T2, Carbonic anhydrase 1 (Homo sapiens, UniProt P00915); assay: Hydratase Activity Assay
Procedure: as §1

Carbonic anhydrase 2 [3] = target: T1, Carbonic anhydrase 2; assay: Esterase Activity Assay
Procedure: as §1

Carbonic anhydrase 1 [4] = target: T2, Carbonic anhydrase 1; assay: Esterase Activity Assay
Procedure: as §1

T2 sequence (P00915 whole entry): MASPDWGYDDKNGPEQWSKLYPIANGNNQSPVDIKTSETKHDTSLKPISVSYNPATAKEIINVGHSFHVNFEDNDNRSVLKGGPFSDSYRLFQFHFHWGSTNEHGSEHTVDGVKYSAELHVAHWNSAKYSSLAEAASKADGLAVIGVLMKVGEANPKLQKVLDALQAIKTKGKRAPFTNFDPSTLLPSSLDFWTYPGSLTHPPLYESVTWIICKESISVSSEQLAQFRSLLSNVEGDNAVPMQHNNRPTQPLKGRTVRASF

SMILES | IC50 (Carbonic anhydrase 2 [1]) [µM] | IC50 (Carbonic anhydrase 1 [2]) [µM] | IC50 (Carbonic anhydrase 2 [3]) [µM] | IC50 (Carbonic anhydrase 1 [4]) [µM]
O=c1oc2cc(O)c(O)cc2cc1-c1ccccc1 [DCP] | 61.7 | 124 | 246 | 160
Cc1cccc(-c2cc3cc(O)c(O)cc3oc2=O)c1 [MPC] | 504 | 320 | 201 | 837
Cc1ccccc1-c1cc2cc(O)c(O)cc2oc1=O [OPC] | 363 | 206 | 163 | 153
Cc1ccc(-c2cc3cc(O)c(O)cc3oc2=O)cc1 [PPC] | 561 | 272 | 127 | 256
